Experimental findings from ChEMBL document CHEMBL4706559, “New indolylarylsulfone non-nucleoside reverse transcriptase inhibitors show low nanomolar inhibition of single and double HIV-1 mutant strains” (Eur J Med Chem, 2020) are described below.

The test system of series [1] is Human immunodeficiency virus 1. Description: Antiviral activity against wild type HIV-1 P1 infected in human C8166 cells assessed as reduction in viral RNA production at 5 nM. Format: functional. Particulars: Human immunodeficiency virus 1, P1, C8166.
A short description of series [2]: Inhibition of RNA-dependent DNA polymerase activity of recombinant HIV-1 p66/p51 reverse transcriptase Y188L mutant assessed as inhibition of [3H]dTTP incorporation using poly(rA)/oligo(dT) as templates incubated for 15 mins by MicroBeta scintillation counting method. Set-up: species or system Human immunodeficiency virus 1.
A short description of series [3]: Cytotoxicity against human MT-4 cells assessed as reduction in cell viability by MTT assay. Format: cell-based, MT4.
The subject of series [4] is Human immunodeficiency virus 1. Description: Antiviral activity against HIV1 harboring RT Y181C mutant infected in human MT4 cells assessed as protection against virus-induced cytopathic effect by MTT assay. Format: functional, organism-based. To be noted: Human immunodeficiency virus 1, MT4.
The nature of series [5]: Inhibition of RNA-dependent DNA polymerase activity of recombinant HIV-1 p66/p51 reverse transcriptase K103N/Y181C mutant assessed as inhibition of [3H]dTTP incorporation using poly(rA)/oligo(dT) as templates incubated for 15 mins by MicroBeta scintillation counting method. Set-up: species or system Human immunodeficiency virus 1.
For series [6], the system named is Human immunodeficiency virus 1. The experiment in a line: Antiviral activity against HIV1 harboring RT Y188L mutant infected in human MT4 cells assessed as protection against virus-induced cytopathic effect by MTT assay. Format: functional, organism-based. Particulars: Human immunodeficiency virus 1, MT4.
Series [7] has as its system Human immunodeficiency virus 1. Description: Antiviral activity against HIV1 harboring RT K103N mutant infected in human MT4 cells assessed as protection against virus-induced cytopathic effect by MTT assay. Format: functional, organism-based. To be noted: Human immunodeficiency virus 1, MT4.
In series [8] the test system is Human immunodeficiency virus 1. The experiment in a line: Antiviral activity against wild type HIV-1 P1 infected in human C8166 cells assessed as reduction in viral p24 antigen production at 25 nM. Format: functional. To be noted: Human immunodeficiency virus 1, P1, C8166.
The nature of series [9]: Selectivity ratio of CC50 for human MT4 cells to EC50 for antiviral activity against HIV-1 NL4-3 infected in human MT4 cells. Format: toxicity, cell-based. Particulars: read-out: Ratio CC50/EC50.
Series [10] deals with Human immunodeficiency virus 1. The experiment in a line: Antiviral activity against wild type HIV-1 P1 infected in human C8166 cells assessed as reduction in viral RNA production at 25 nM. The format is functional. Particulars: Human immunodeficiency virus 1, P1, C8166.
The test system of series [11] is Human immunodeficiency virus 1. The experiment in a line: Resistance index, ratio of EC50 for antiviral activity against HIV1 harboring RT K103N/Y181C double mutant infected in human MT4 cells to EC50 for antiviral activity against HIV1 NL4-3 infected in human MT4 cells. The format is functional.
Series [12] deals with Human immunodeficiency virus 1. The experiment in a line: Antiviral activity against HIV1 harboring RT K103N/Y181C double mutant infected in human MT4 cells assessed as protection against virus-induced cytopathic effect by MTT assay. The format is functional, organism-based. To be noted: Human immunodeficiency virus 1, MT4.
Series [13] deals with Human immunodeficiency virus type 1 reverse transcriptase (Human immunodeficiency virus 1, UniProt Q72547, K103N). Description: Inhibition of RNA-dependent DNA polymerase activity of recombinant HIV-1 p66/p51 reverse transcriptase K103N mutant assessed as inhibition of [3H]dTTP incorporation using poly(rA)/oligo(dT) as templates incubated for 15 mins by MicroBeta scintillation counting method.

In series [14] the test system is Human immunodeficiency virus 1. Description: Antiviral activity against HIV-1 NL4-3 infected in human MT-4 cells assessed as virus induced cytopathic effect by MTT assay. The format is functional, organism-based. Particulars: Human immunodeficiency virus 1, NL4-3, MT4.
The test system of series [15] is Human immunodeficiency virus 1. Description: Resistance index, ratio of EC50 for antiviral activity against HIV1 harboring RT Y188L mutant infected in human MT4 cells to EC50 for antiviral activity against HIV1 NL4-3 infected in human MT4 cells. Format: functional.
For series [16], the target named is Human immunodeficiency virus type 1 reverse transcriptase (Human immunodeficiency virus 1, UniProt Q72547). Description: Inhibition of RNA-dependent DNA polymerase activity of wild type recombinant HIV-1 His-tagged p66/p51 reverse transcriptase assessed as inhibition of [3H]dTTP incorporation using poly(rA)/oligo(dT) as templates incubated for 15 mins by MicroBeta scintillation counting method.

Series [17] concerns Human immunodeficiency virus 1. The experiment in a line: Resistance index, ratio of EC50 for antiviral activity against HIV1 harboring RT Y181C mutant infected in human MT4 cells to EC50 for antiviral activity against HIV1 NL4-3 infected in human MT4 cells. The format is functional.
In series [18] the test system is Human immunodeficiency virus 1. Description: Resistance index, ratio of EC50 for antiviral activity against HIV1 harboring RT K103N mutant infected in human MT4 cells to EC50 for antiviral activity against HIV1 NL4-3 infected in human MT4 cells. The format is functional.
In series [19] the test system is Human immunodeficiency virus 1. Description: Antiviral activity against wild type HIV-1 P1 infected in human C8166 cells assessed as reduction in viral RNA production at 1 nM. Particulars: Human immunodeficiency virus 1, P1, C8166. The format is functional.

As for `Cc1cc(C)cc(S(=O)(=O)c2c(C(=O)NCc3ccccc3N)[nH]c3ccc(Cl)cc23)c1`, the inhibition at 0.005 µM in series [1] was 10%. Moreover, the concentration for half-maximal inhibition (IC50) came out at 57 nM in [2], 15 nM in series [5], 7 nM in series [13] and 19 nM in series [16]. The CC50 in series [3] came to 46200 nM. Besides, the EC50 is under 0.7 nM in series [4]; 2.1 nM in series [6]; under 0.7 nM in series [7]; 23.5 nM in [12]; under 0.7 nM in series [14]. For the same compound, the inhibition at 0.025 µM in [8] was 90%; in [10] it was 100%. The selectivity ratio in series [9] was over 65900. Moreover, the results for the “Ratio EC50” value in series [11] and in series [15] were over 33 and over 3, respectively.
Take `Cc1cc(C)cc(S(=O)(=O)c2c(C(=O)NC(C)C(=O)NCc3cccc(O)c3)[nH]c3ccc(Cl)cc23)c1` (configuration not stated): the IC50 in [2] worked out at 34 nM; in series [5], 842 nM; in [13], 12 nM; in [16], 208 nM. The CC50 in series [3] came to 23800 nM. Also, the EC50 in [4] was 7.4 nM; in [6], 3200 nM; in [7], 18.5 nM; in series [12], 3670 nM; in [14], under 0.6 nM. The “Ratio EC50” value in series [17] is on record as 12; in [18] it was over 31; in series [11], over 5239; in series [15], over 5340. Besides, the selectivity ratio in series [9] is over 39600.
With `Cc1cc(C)cc(S(=O)(=O)c2c(C(=O)NCc3cccc(O)c3)[nH]c3ccc(Cl)cc23)c1`, the inhibition at 0.005 µM in series [1] came out at 38%. Moreover, the IC50 worked out at 33 nM in series [2], 45 nM in series [5], 2 nM in [13] and 68 nM in series [16]. Also, the CC50 in [3] amounted to 27000 nM. Moreover, the EC50 in [4] is 11 nM; in series [7] it was under 0.6 nM; in series [12] it was 110 nM; in series [14], under 0.6 nM. Besides, the “Ratio EC50” value was over 18 in series [17] and over 183 in series [11]. The inhibition at 0.001 µM in [19] is 7%. In addition, the values for the inhibition at 0.025 µM in series [8] and in [10] were 55% and 85%, respectively. Besides, the selectivity ratio in [9] is over 44900.
